These results are taken from patent publication US7776558B2, “Human G protein-coupled receptor and modulators thereof for the treatment of cell death-related disorders” (Arena Pharmaceuticals, Inc., priority 2003, dated 2010).

The target of one assay is T1, FPRL2 (Homo sapiens, UniProt P25089).
T1 sequence (P25089 1-353): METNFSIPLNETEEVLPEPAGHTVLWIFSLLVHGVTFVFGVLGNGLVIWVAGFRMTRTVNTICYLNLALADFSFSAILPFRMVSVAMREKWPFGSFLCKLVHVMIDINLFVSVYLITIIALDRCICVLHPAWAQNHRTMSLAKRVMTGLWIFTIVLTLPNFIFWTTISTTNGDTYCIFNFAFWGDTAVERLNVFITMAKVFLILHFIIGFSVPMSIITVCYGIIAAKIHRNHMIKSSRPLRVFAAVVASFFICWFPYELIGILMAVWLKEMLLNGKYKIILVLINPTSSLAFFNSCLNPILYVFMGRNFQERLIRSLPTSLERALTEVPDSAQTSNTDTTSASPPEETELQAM
The experiment in a line: Pertussis toxin sensitivity of signaling, adenylate cyclase assay in HEK293 cells. As to conditions: pre-treated 18 to 20 hrs with 50 ng/ml pertussis toxin; 5 μM forskolin; FIG. 7. Also on record: expressed in transfected cells. Type of assay: cell-based. On the procedure: The pertussis toxin sensitivity of Compound 1 signalling through human FPRL2 was determined similarly.
Samples were then assessed for cAMP levels as described in Example 4, supra.

Assay [1] deals with serum-deprived differentiated SH-SY5Y cells. The experiment in a line: Cell death of serum-deprived differentiated SH-SY5Y cells. Format: cell-based, human. As to conditions: serum-free medium 6 days; LDH assay (panel A) or Trypan Blue staining (panel B); FIG. 10. The method, then:
Briefly, SH-SY5Y cells were differentiated into neuronal-like cells by treatment with retinoic acid (10 μM) for five days followed by treatment with BDNF (10 ng/ml) for two days. […] Cell viability was determined by lactate dehydrogenase (LDH) assay (Roche, Indianapolis, Ind.; catalog no. 1644793) or by trypan blue staining. LDH is a stable cytoplasmic enzyme present in all cells which is rapidly released upon damage to the plasma membrane. The level of LDH is inversely proportional to the number of viable cells. The LDH assay was carried out as per manufacturer's instructions.

For a further assay, the target named is T2, FPR (Homo sapiens, UniProt P21462).
T2 sequence (P21462 1-350): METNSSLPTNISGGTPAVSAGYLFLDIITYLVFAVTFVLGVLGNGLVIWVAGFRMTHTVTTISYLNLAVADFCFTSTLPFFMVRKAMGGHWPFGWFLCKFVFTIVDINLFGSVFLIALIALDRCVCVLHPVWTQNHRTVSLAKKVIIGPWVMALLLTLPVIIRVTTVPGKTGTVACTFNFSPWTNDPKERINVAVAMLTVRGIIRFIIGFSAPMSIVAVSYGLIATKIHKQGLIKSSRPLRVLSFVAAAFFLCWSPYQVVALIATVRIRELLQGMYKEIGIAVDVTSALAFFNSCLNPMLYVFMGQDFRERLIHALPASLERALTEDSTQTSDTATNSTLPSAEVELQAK
Put plainly: [35S]GTPγS binding assay, membranes of transiently transfected CHO cells. Format: biochemical. As to conditions: FIG. 3 panel C; up to a dose of 10 μM. Also noted: Full-Length Cloning of Human GPCRs; expressed in transfected cells; host or cells: CHO-K1 cells, transient, pCMV; plasma membranes. On the procedure: The plasmids used were HA/V5 doubled tagged endogenous FPRL2 in pCMV, HA/V5 double-tagged endogenous FPRL1 in pCMV, HAN5 double-tagged endogenous FPR in pCMV, and pCMV alone (See, Example 1). Transient transfections were carried out on CHO-K1 cells. To a 15 cm dish of confluent cells, 12 μg of plasmid DNA and 60 μl Lipofectamine (Invitrogen, Carlsbad, Calif.) were added to each plate. Twenty-four hours post-infection, plasma membranes were isolated as described below. Assays were then run as described below.
“Membrane Scrape Buffer” consists of 20 mM HEPES and 10 mM EDTA, pH 7.4; “Membrane Wash Buffer” consists of […] and 0.1 mM EDTA, pH 7.4; “Binding. Buffer” consists of 20 mM HEPES, 100 mM NaCl, and 10 mM MgCl2, pH 7.4.
All materials were kept on ice throughout the procedure. Firstly, the media was aspirated from a confluent monolayer of transfected cells, followed by rinse with 10 ml cold PBS, followed by aspiration. Thereafter, 10 ml of Membrane Scrape Buffer was added to scrape cells; this was followed by transfer of cellular extract into 50 ml centrifuge tubes (centrifuged at 20,000 rpm for 17 minutes at 4° C.). […]
First, 100 μl GDP Buffer was added to each well of a Wallac Scintistrip™ (Wallac). […] The plates were then read on a Wallac 1450 using setting “Prot. #37” (as per manufacturer instructions).
For orientation: GTPγS is a poorly hydrolysed GTP analogue; its binding reports G protein activation.

Where no end group is shown, it is not given here.

As for `CC(C)c1ccc2c(c1)CCC1C(C)(C(N)=O)CCCC21C` (stereo not drawn) [Compound 1, 7-Isopropyl-1,4a-dimethyl-1,2,3,4,4a,9,10,10a-octahydro-phenanthrene-1-carboxylic acid amide], the “Pertussis toxin sensitivity of the inhibition of cAMP through FPRL2” value on FPRL2 is “pertussis sensitive”. For the same compound, the “Inhibition of cell death of serum-deprived SH-SY5Y cells” value in assay [1] is “inhibit cell death”.

As for `CC[C@H](C)[C@H](NC(=O)[C@H](CCC(=O)O)NC(=O)[C@H](CO)NC(=O)[C@@H](NC(=O)[C@H](CC(C)C)NC(=O)[C@H](CC(C)C)NC(=O)[C@H](CC(C)C)NC(=O)[C@H](CC(C)C)NC(=O)[C@H](CS)NC(=O)[C@H](CO)NC(=O)[C@H](Cc1ccccc1)NC(=O)CNC(=O)[C@H](CCCNC(=N)N)NC(=O)[C@@H]1CCCN1C(=O)[C@H](C)NC(=O)[C@@H](N)CCSC)[C@@H](C)O)C(=O)N[C@@H](CC(=O)O)C(=O)N[C@@H](CC(C)C)C(=O)N1CCC[C@H]1C(=O)N[C@H](C(=O)N[C@@H](CCCCN)C(=O)N[C@@H](CCCNC(=N)N)C(=O)N[C@@H](CCCNC(=N)N)C(=O)N[C@@H](C)C(=O)O)C(C)C` [Humanin], the “Activity at FPR, promoted [35S]GTPγS binding” value on FPR was “Neither Humanin nor [Gly14]-Humanin evidence significant activity”. The “Pertussis toxin sensitivity of the inhibition of cAMP through FPRL2” value at FPRL2 was “pertussis sensitive”. In assay [1], the “Inhibition of cell death of serum-deprived SH-SY5Y cells” value was “inhibit cell death”.

Consider “MAPRGFSCLLLLTGEIDLPVKRRA [[Gly14]-Humanin]”, for which the “Activity at FPR, promoted [35S]GTPγS binding” value at FPR was “Neither Humanin nor [Gly14]-Humanin evidence significant activity”.
